2 molecules from article doi:10.1101/466938v1, “The distinct biochemical property enables thymidylate kinase as a drug target and participates in pyrimidine drug sensitivity in Candida albicans” (biorxiv, 2018) can be followed below.

The test system of experiment [1] is T1, Candida albicans F2017g023.
T1 construct: F2017g023
Briefly: microbe, parasite or virus in culture. Also noted: species or system Candida albicans strains; CLSI M27 broth microdilution, RPMI 1640, OD600 growth, MIC at 50% inhibition. To be noted: F2017G023, 24 h, read-out: 5-FUrd MIC (µg/mL). The procedure:
(§1) Minimum inhibitory concentrations (MICs) of 5-FUrd were determined by broth microdilution method in accordance with the guidelines in Clinical and Laboratory Standards Institute (CLSI) document M27[25], using RPMI 1640 medium containing 0.165 M MOPs (pH 7.0) and 0.2% glucose, an inoculum of 10^3 cells/well, and incubated for 24 hr at 35°C, followed by OD600 reading by TECAN SPARK plate reader. The MIC50 of 5-FUrd was determined as the lowest dosage of 5-FUrd causing 50% inhibition of the growth by using the concentrations in the range of 0.004-2μg/mL. MICs of […] of human use (5-FC; four azoles: posaconazole, voriconazole, itraconazole, fluconazole; and three echinocandins: anidulafungin, caspofungin and micafungin) were determined by the microdilution colorimetric Sensititre YeastOne SYO-09 panel (TREK Diagnostic Systems, Cleveland, OH, USA); in accordance with the manufacturer’s instructions. MICs values were determined visually, after 24 hours of incubation, as the lowest concentration of drug that caused complete inhibition (amphotericin B) or a significant diminution (≥50% inhibition; flucytosine, azoles and echinocandins) of growth relative to that of the growth control. Table 2. Minimum inhibitory concentrations of 5-FUrd and antifungal drugs of clinical used for pathogenic and drug-resistant isolates of Candida albicans^a We further tested the 5-FUrd sensitivity of a number of pathogenic C. albicans isolates from patients. […] Because 5-FC is intracellularly metabolized to 5-FU, we asked why the 5-FC-resistant isolates remained sensitive to 5-FUrd. Several mutations in 5-FC resistant strains were identified in the enzymes involved in the formation of 5-FUMP from 5-FC, including purine-cytosine permease (Fcy2), cytosine deaminase (Fca1) and uracil phosphoribosyltransferase (Fur1). These 5-FC-resistant but 5-FUrd-sensitive strains might have mutations in these genes. 5-FUrd is transported into C. albicans through uridine permease (Fui1) and is then phosphorylated to 5-FUMP by uridine kinase (Urk1). Presumably, activation of 5-FUrd metabolism by the Fui1 and Urk1 pathways can overcome the defects in genes mediating 5-FC activation, namely, Fcy2, Fca1 and Fur1, leading to toxicity, as depicted in Fig 6. One important effect of antifungal drugs is host liver toxicity.

Experiment [2] deals with T2, Candida albicans F2015b076.
T2 construct: F2015b076
The experiment in a line: microbe, parasite or virus in culture. On the set-up: species or system Candida albicans strains; CLSI M27 broth microdilution, RPMI 1640, OD600 growth, MIC at 50% inhibition. The conditions noted are these: F2015B076, 24 h, read-out: 5-FUrd MIC (µg/mL). The procedure: as §1

The test system of experiment [3] is T3, Candida albicans F2016e085.
T3 construct: F2016e085
Briefly: microbe, parasite or virus in culture. The conditions noted are these: F2016E085, 24 h, read-out: 5-FUrd MIC (µg/mL). Also noted: species or system Candida albicans strains; CLSI M27 broth microdilution, RPMI 1640, OD600 growth, MIC at 50% inhibition. As for the experimental part:
as §1

Experiment [4] relates to T4, Candida albicans F2016f024.
T4 construct: F2016f024
Briefly: microbe, parasite or virus in culture. Also noted: species or system Candida albicans strains; CLSI M27 broth microdilution, RPMI 1640, OD600 growth, MIC at 50% inhibition. To be noted: F2016F024, 24 h, read-out: 5-FUrd MIC (µg/mL). As for the experimental part: as §1

The subject of experiment [5] is T5, Candida albicans F2016a067.
T5 construct: F2016a067
The experiment in a line: microbe, parasite or virus in culture. On the set-up: species or system Candida albicans strains; CLSI M27 broth microdilution, RPMI 1640, OD600 growth, MIC at 50% inhibition. The conditions noted are these: F2016A067, 24 h, read-out: 5-FUrd MIC (µg/mL). As for the experimental part: as §1

The subject of experiment [6] is T6, Candida albicans F2014f090.
T6 construct: F2014f090
The experiment in a line: microbe, parasite or virus in culture. Also noted: species or system Candida albicans strains; CLSI M27 broth microdilution, RPMI 1640, OD600 growth, MIC at 50% inhibition. The conditions noted are these: F2014F090, 24 h, read-out: 5-FUrd MIC (µg/mL). As for the experimental part: as §1

The subject of experiment [7] is T7, Candida albicans F2014a093.
T7 construct: F2014a093
Briefly: microbe, parasite or virus in culture. On the set-up: species or system Candida albicans strains; CLSI M27 broth microdilution, RPMI 1640, OD600 growth, MIC at 50% inhibition. To be noted: F2014A093, 24 h, read-out: 5-FUrd MIC (µg/mL). As for the experimental part: as §1

Experiment [8] relates to T8, Candida albicans ATCC90028.
T8 construct: ATCC 90028
Briefly: microbe, parasite or virus in culture. Also noted: species or system Candida albicans strains; CLSI M27 broth microdilution, RPMI 1640, OD600 growth, MIC at 50% inhibition. The conditions noted are these: ATCC90028, 24 h, read-out: 5-FUrd MIC (µg/mL). As for the experimental part: as §1

Experiment [9] concerns T9, Candida albicans F2015f019.
T9 construct: F2015f019
The experiment in a line: microbe, parasite or virus in culture. To be noted: F2015F019, 24 h, read-out: 5-FUrd MIC (µg/mL). Also noted: species or system Candida albicans strains; CLSI M27 broth microdilution, RPMI 1640, OD600 growth, MIC at 50% inhibition. The procedure:
as §1

Experiment [10] deals with T10, Candida albicans F2016c087.
T10 construct: F2016c087
Briefly: microbe, parasite or virus in culture. Also noted: species or system Candida albicans strains; CLSI M27 broth microdilution, RPMI 1640, OD600 growth, MIC at 50% inhibition. To be noted: F2016C087, 24 h, read-out: 5-FUrd MIC (µg/mL). As for the experimental part: as §1

A further experiment relates to T11, Candida albicans SC5314.
T11 construct: SC5314
Briefly: microbe, parasite or virus in culture. The conditions noted are these: SC5314, 24 h, read-out: 5-FUrd MIC (µg/mL). Also noted: species or system Candida albicans strains; CLSI M27 broth microdilution, RPMI 1640, OD600 growth, MIC at 50% inhibition. The procedure:
as §1

For experiment [11], the system named is T12, Candida albicans F2016g048.
T12 construct: F2016g048
Briefly: microbe, parasite or virus in culture. On the set-up: species or system Candida albicans strains; CLSI M27 broth microdilution, RPMI 1640, OD600 growth, MIC at 50% inhibition. To be noted: F2016G048, 24 h, read-out: 5-FUrd MIC (µg/mL). The procedure: as §1

The next experiment concerns the target T13, CaTMPK (Candida albicans, UniProt Q59TV7).
T13 construct: gene CAALFM_C111790WA; pGEX-2T in E. coli BL21; N-terminal GST cut by thrombin; CTG codon changed to TCG to keep native Ser68; synthetic gene GenScript #5001191-1
T13 sequence (Q59TV7 1-224 limits assumed): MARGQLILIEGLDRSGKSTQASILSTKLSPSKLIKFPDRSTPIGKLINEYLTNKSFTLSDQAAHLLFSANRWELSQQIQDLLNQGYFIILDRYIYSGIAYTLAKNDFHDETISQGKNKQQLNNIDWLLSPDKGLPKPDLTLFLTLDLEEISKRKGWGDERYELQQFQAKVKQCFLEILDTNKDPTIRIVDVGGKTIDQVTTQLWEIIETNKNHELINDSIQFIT
The experiment in a line: NADH-coupled assay (pyruvate kinase / lactate dehydrogenase). Format: biochemical. To be noted: 2 mM ATP, 100 mM Tris-HCl, 100 mM KCl, 10 mM MgCl2.

In another experiment the target is T14, hTMPK (Homo sapiens, UniProt P23919).
T14 construct: gene DTYMK; pGEX-2T in E. coli BL21; N-terminal GST cut by thrombin
T14 sequence (P23919 1-212): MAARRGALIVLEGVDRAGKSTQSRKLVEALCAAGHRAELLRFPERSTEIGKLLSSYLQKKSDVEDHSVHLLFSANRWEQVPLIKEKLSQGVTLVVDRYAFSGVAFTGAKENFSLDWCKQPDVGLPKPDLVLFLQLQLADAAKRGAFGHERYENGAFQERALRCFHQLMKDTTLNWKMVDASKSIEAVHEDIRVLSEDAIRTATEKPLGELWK
The experiment is described as above. The conditions noted are these: 2 mM ATP, 100 mM Tris-HCl, 100 mM KCl, 10 mM MgCl2. Format: biochemical.

The structures appear in SMILES notation. In brackets after ≈: the same amount, converted by molar mass.

For the molecule `O=c1[nH]c(=O)n([C@@H]2O[C@H](CO)[C@@H](O)[C@H]2O)cc1F` [5-FUrd, 5-fluorouridine], the MIC was 0.043 ± 0.001 µg/mL (≈ 0.164 µM) in experiment [1]; 0.026 ± 0.001 µg/mL (≈ 0.0992 µM) in experiment [2]; 0.076 ± 0.02 µg/mL (≈ 0.29 µM) in experiment [3]; 0.031 ± 0.003 µg/mL (≈ 0.118 µM) in experiment [4]; 0.049 ± 0.001 µg/mL (≈ 0.187 µM) in [5]; 0.028 ± 0.002 µg/mL (≈ 0.107 µM) in experiment [6]. Also, the MIC was determined as 0.021 ± 0.001 µg/mL (≈ 0.0801 µM) in experiment [7]; 0.03 ± 0.011 µg/mL (≈ 0.114 µM) in [8]; 0.036 ± 0.008 µg/mL (≈ 0.137 µM) in [9]; 0.021 ± 0.008 µg/mL (≈ 0.0801 µM) in [10]; 0.044 ± 0.003 µg/mL (≈ 0.168 µM) in the experiment on Candida albicans SC5314; 0.063 ± 0.012 µg/mL (≈ 0.24 µM) in [11].

With `O=c1ccn([C@H]2C[C@H](O)[C@@H](COP(=O)(O)O)O2)c(=O)[nH]1` [dUMP], the Km result at CaTMPK was “Steady-state kinetics of CaTMPK and hTMPK using different dUMP concentrations”; on hTMPK, “Steady-state kinetics of CaTMPK and hTMPK using different dUMP concentrations”.
